Tests used:
[1] = system: MDA-MB-453; assay: drug sensitivity score (DSS), single agent (DSS (weighted AUC score)); higher = more sensitive (stronger viability decrease); extreme values may be limits of the assay; settings: BLU9931 0 nM; 72 h
Method in brief: (§1)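 Compounds from the FIMM Oncology set were predispensed in singlicate at five 10-fold dilutions (10,000-fold range) on 384-well plates. Each well then received 2000 MDA-MB-453 cells in medium with or without an FGFR4 inhibitor (100 nM final) and was kept at 37 °C, 5% CO2. Cellular ATP was read with CellTiterGlo 2.0 after 72 h and normalised per plate to percent viability from control wells. The drug sensitivity score is a weighted area under a four-parameter logistic fit.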

[2] = system: MDA-MB-453; assay: drug sensitivity score (DSS), in combination with BLU9931 (DSS (weighted AUC score)); higher = more sensitive (stronger viability decrease); extreme values may be limits of the assay; settings: BLU9931 100 nM; 72 h
Method in brief: as §1

Row | Structure (SMILES) | drug sensitivity score [1] | drug sensitivity score [2]
1 | Nc1ncnc2c1c(COc1cccc(Cl)c1)nn2C1CCOCC1 | 0.9 | 0.9
2 | O=C(Nc1cc(Cl)cc2c1[nH]c1cnccc12)c1cccnc1 [PS-1145] | 0 | 0.3
3 | C=CC(=O)N1CC/C(=C\c2ccc(F)c([N+](=O)[O-])c2)C(=O)/C(=C/c2ccc(F)c([N+](=O)[O-])c2)C1 [VLX1570] | 21.1 | 19.3
4 | CC[C@H](NC(=O)[C@H](C)NC)C(=O)N1C[C@@H](O)C[C@H]1Cc1c(-c2[nH]c3cc(F)ccc3c2C[C@@H]2C[C@H](O)CN2C(=O)[C@H](CC)NC(=O)[C@H](C)NC)[nH]c2cc(F)ccc12 [Birinapant] | 10.1 | 15.8
5 | C[C@@]1(C(=O)Nc2ccc(F)nc2)CCCN1c1nc(Nc2cc(C3CC3)n[nH]2)c2cccn2n1 | 0 | 0
6 | CC(=O)O[C@H]1C(=O)[C@@]2(C)[C@H]([C@H](OC(=O)c3ccccc3)[C@]3(O)C[C@H](OC(=O)[C@H](O)[C@@H](NC(=O)c4ccccc4)c4ccccc4)C(C)=C1C3(C)C)[C@]1(OC(C)=O)CO[C@@H]1C[C@@H]2O [Paclitaxel] | 18.3 | 15.2
7 | N#Cc1ccc(COC[C@H]2O[C@@H](n3c(NCc4ccc(Cl)c(Cl)c4)nc4c(N)ncnc43)[C@H](O)[C@@H]2O)cc1 | 4.9 | 4.2
8 | Oc1ncnc2[nH]ncc12 [Allopurinol] | 0.1 | 0.3
9 | N.N.[Cl][Pt][Cl] [Cisplatin] | 6.5 | 6.5
10 | COc1ccccc1S(=O)(=O)Nc1ccc2c(c1)CN(C)C(=O)N2 [PFI-1] | 8.2 | 8.4
11 | O=C(c1ccc(C(=O)N2CCC(N3CCCC3)CC2)c(Nc2ccccc2)c1)N1CCC(N2CCCC2)CC1 [UNC1215] | 0 | 0
12 | COc1cc(N2CCN(C)CC2)ccc1Nc1nccc(-c2cn(C)c3cnccc23)n1 [AZ191] | 1.3 | 1.2
13 | O=c1[nH]c(C2CCCN2)nc2c1oc1ccc(Cl)cc12 (configuration not stated) | 0 | 0.5
14 | Cc1ccc(Nc2nccc(N(C)c3ccc4c(C)n(C)nc4c3)n2)cc1S(N)(=O)=O [Pazopanib] | 2.3 | 0
15 | CNC(=O)c1ccccc1Nc1cc(Nc2ccc(N3CCOCC3)cc2OC)ncc1C(F)(F)F [VS-4718] | 1.9 | 0
16 | C[C@@H]1C[C@H]2[C@@H]3CCC4=CC(=O)C=C[C@]4(C)[C@@]3(F)[C@@H](O)C[C@]2(C)[C@@]1(O)C(=O)CO [Dexamethasone] | 4 | 0
17 | Cc1cccc(CC(=O)N2CCc3c2ccc(-c2cn(C)c4ncnc(N)c24)c3F)n1 | 2.2 | 0
18 | Cc1cccc(-c2[nH]c(CNc3ccccc3F)nc2-c2ccc3ncnn3c2)n1 [TEW-7197] | 5.2 | 1.8
19 | C=CCc1cccc(/C=N/NC(=O)CN2CCN(Cc3ccccc3)CC2)c1O [PAC-1] | 4.4 | 4.9
20 | CC/C(=C(\c1ccccc1)c1ccc(OCCN(C)C)cc1)c1ccccc1 [Tamoxifen] | 5.3 | 2.4
21 | Cc1cnc(NC(=O)Nc2cc(Br)c(C)cc2OC[C@@H]2CNCCO2)cn1 [Rabusertib] | 1.2 | 0.9

Row | Structure (SMILES) | drug sensitivity score [1] | drug sensitivity score [2]
22 | Cn1cc(-c2cnn3c(N)c(Br)c([C@@H]4CCCNC4)nc23)cn1 [MK-8776] | 1.1 | 1.3
23 | Cc1cc(Nc2ncc(Cl)c(Nc3ccccc3S(=O)(=O)C(C)C)n2)c(OC(C)C)cc1C1CCNCC1 [Ceritinib] | 1.8 | 1.9
24 | Cn1ncnc1[C@H]1c2n[nH]c(=O)c3cc(F)cc(c23)N[C@@H]1c1ccc(F)cc1 [Talazoparib] | 1.7 | 3.1
25 | COc1cc2c(NC3CCN(C(C)C)CC3)nc(N3CCC(F)(F)CC3)nc2cc1OCCCN1CCCC1 [UNC0642] | 2.1 | 1.4
26 | O=c1[nH]cc(F)c(=O)[nH]1 [Fluorouracil] | 2.1 | 0.1
27 | CN1CCN(CCOc2cc(OC3CCOCC3)c3c(Nc4c(Cl)ccc5c4OCO5)ncnc3c2)CC1 [Saracatinib] | 1.5 | 3.6
28 | Cc1cc(Nc2cc(N3CCN(C)CC3)nc(/C=C/c3ccccc3)n2)n[nH]1 [ENMD-2076] | 7.1 | 7.8
29 | Nc1nccc(-c2c(-c3ccc(F)cc3)ncn2C2CCCCC2)n1 | 1.1 | 0.6
30 | COc1cc2c(N3CCN(C(=O)Nc4ccc(OC(C)C)cc4)CC3)ncnc2cc1OCCCN1CCCCC1 [Tandutinib] | 0 | 0
31 | Nc1nc(Cl)nc2c1ncn2[C@@H]1O[C@H](CO)[C@@H](O)[C@@H]1F [Clofarabine] | 4.4 | 3.9
32 | COc1cc(C(=O)O)ccc1NC(=O)[C@@H]1N[C@@H](CC(C)(C)C)[C@](C#N)(c2ccc(Cl)cc2F)[C@H]1c1cccc(Cl)c1F [Idasanutlin] | 1.1 | 0
33 | O=C(/C=C/c1cccnc1)NCCCCC1CCN(C(=O)c2ccccc2)CC1 [Daporinad] | 30.5 | 28.6
34 | Cc1ccc(-n2nc(C(C)(C)C)cc2NC(=O)Nc2ccc(OCCN3CCOCC3)c3ccccc23)cc1 [Doramapimod] | 2.3 | 1.8
35 | COCC[n+]1c2c(n(Cc3cnccn3)c1C)C(=O)c1ccccc1C2=O [Sepantronium bromide] | 32.9 | 33.2
36 | CC[C@]1(O)C[C@H]2CN(CCc3c([nH]c4ccccc34)[C@@](C(=O)OC)(c3cc4c(cc3OC)N(C=O)[C@H]3[C@@](O)(C(=O)OC)[C@H](OC(C)=O)[C@]5(CC)C=CCN6CC[C@]43[C@@H]65)C2)C1 [Vincristine] | 14.1 | 8.1
37 | CC(=O)O[C@@]12CO[C@@H]1C[C@H](O)[C@@]1(C)C(=O)[C@H](O)C3=C(C)[C@@H](OC(=O)[C@H](O)[C@@H](NC(=O)OC(C)(C)C)c4ccccc4)C[C@@](O)([C@@H](OC(=O)c4ccccc4)[C@H]21)C3(C)C [Docetaxel] | 18.3 | 14.1
38 | CCNC(=O)c1noc(-c2cc(C(C)C)c(O)cc2O)c1-c1ccc(CN2CCOCC2)cc1 [Luminespib] | 18.1 | 19.7
39 | CO[C@H]1C[C@@H]2CC[C@@H](C)[C@@](O)(O2)C(=O)C(=O)N2CCCC[C@H]2C(=O)O[C@H]([C@H](C)C[C@@H]2CC[C@@H](OCCO)[C@H](OC)C2)CC(=O)[C@H](C)/C=C(\C)[C@@H](O)[C@@H](OC)C(=O)[C@H](C)C[C@H](C)/C=C/C=C/C=C/1C [Everolimus] | 9.5 | 13.6
40 | Cn1cc(C[C@@H](N)C(=O)O)c2ccccc21 [1-methyl-D-tryptophan] | 0.2 | 0
41 | Cn1ncc(Cl)c1-c1cc(C(=O)N[C@H](CN)Cc2cccc(F)c2)sc1Cl [Afuresertib] | 7.9 | 8.4

Reference: the supplement of paper PMC7224384
